Assay results from patent US20240335420A1, “N-ACYLHYDRAZONE COMPOUNDS CAPABLE OF INHIBITING NAV 1.7 AND/OR NAV 1.8, PROCESSES FOR THE PREPARATION THEREOF, COMPOSITIONS, USES, METHODS FOR TREATMENT USING SAME AND KITS” (EUROFARMA LABORATÓRIOS S.A., priority 2021, published 2024).

What was measured:
Assay type in all cases: cell-based
[1] = biological target: T1, human sodium channels Nav 1.7 (Homo sapiens (Human), UniProt Q15858); test: Automated whole-cell voltage-clamp (ScreenPatch 384P), Nav 1.7 sodium current, Protocol 2; conditions: Protocol 2 (holding −100 mV, inactivation step −40 mV 8 s, 0.05 Hz); CHO cells expressing human Nav 1.7; read-out: Nav1.7 IC50
Experimental: (§1) Biological assays were performed on Chinese hamster ovary (CHO) cells expressing the human sodium channels Nav 1.8 and Nav 1.7 stably.
(§2) The experimental voltage-clamp protocol using the whole cell configuration was established on the automated ScreenPatch® 384P platform (SP384PE, Nanion Technologies, Livingston, NJ) and recording of the results was performed with a Nanion 384-well Patch Clamp chip (NPC) (Nanion Technologies, Livingston, NJ).
(§3) Compounds of Formula (I), were diluted in eight concentrations in the extracellular solution composed of physiological saline, buffered with HEPES (mM): NaCl, 137; KCl, 4; CaCl2, 3.8; MgCl2, 1; HEPES, 10; Glucose, 10; pH 7.4. The […], 50; CsF, 90; MgCl2, 5; EGTA, 5; HEPES, 10; pH 7.2. The duration of exposure of each compound with the cells expressing Nav 1.7 or Nav 1.8 was at least five minutes and the assays were performed at room temperature.
(§4) The measurements of the sodium currents of Nav 1.8 and Nav 1.7 were obtained using the voltage protocols described below: • Protocol 1: A holding voltage of −90 mV was established followed by a voltage phase of 200 ms to −120 mV, followed by a voltage step of 10 mV for 1 second for Nav 1.8 or 0 mV for Nav 1.7, followed by a step of −100 mV for 20 ms, followed by a step of 20 ms for 10 mV for Nav 1.8 or 0 mV for Nav 1.7 (TP1A) before returning to the holding voltage of −90 mV. • Protocol 2: A holding voltage of −100 mV was established followed by an inactivation voltage step at −40 mV for 8 seconds, followed by a −100 mV step for […], followed by a 20 ms step for 10 mV for Nav 1.8 or 0 mV for Nav 1.7 (TP1A) before returning to the holding voltage of −100 mV.
(§5) Protocols were repeated at a frequency of 0.1 Hz (Protocol 1) or 0.05 Hz (Protocol 2) and current amplitude was quantified over the TP1A phase log. The variation in the peak amplitude of the current was evaluated according to the Formula described below, after exposure of the cells expressing the channels, at each concentration of the different compounds:
(§6) [formula] • where |TP1A, basal, and |TP1A, molecule represent the entry peaks of sodium currents into TP1A prior to exposure to the compound and in the presence of the compound, respectively.
(§7) The decrease in peak current amplitude, after exposure of the cells to the compounds, was used to calculate the percent relative blocking of the channels relative to the positive control according to the Formula below:
(§8) [formula] • where % V and % CP represent the averages of the values of current inhibition with a vehicle (DMSO) and positive controls, respectively. The sodium currents of the positive control were considered as 100%.
(§9) [formula] • where [Test] represents the concentration of the evaluated molecule, IC50 is the concentration of the compound that generates half of the maximum inhibition, N is the Hill's coefficient and % Block′ is the percentage of the sodium channel current (Nav 1.8 and Nav 1.7) inhibited at each concentration of the evaluated molecule. Data were obtained by non-linear least squares regression with XLfit for Excel (Microsoft, Redmond, WA).
(§10) Compounds were tested in at least one assay to obtain the IC50 value.

[2] = biological target: T2, human sodium channels Nav 1.8 (Homo sapiens (Human), UniProt Q9Y5Y9); test: Automated whole-cell voltage-clamp (ScreenPatch 384P), Nav 1.8 sodium current, Protocol 2; conditions: Protocol 2 (holding −100 mV, inactivation step −40 mV 8 s, 0.05 Hz); CHO cells expressing human Nav 1.8; read-out: Nav1.8 IC50
Experimental: as §1, §2, §3, §4, §5, §6, §7, §8, §9, §10

[3] = biological target: T2, human sodium channels Nav 1.8; test: Automated whole-cell voltage-clamp (ScreenPatch 384P), Nav 1.8 sodium current, Protocol 1; conditions: Protocol 1 (holding −90 mV, 0.1 Hz); CHO cells expressing human Nav 1.8; room temperature; read-out: Nav1.8 IC50
Experimental: as §1, §2, §3, §4, §5, §6, §7, §8, §9, §10

[4] = biological target: T1, human sodium channels Nav 1.7; test: Automated whole-cell voltage-clamp (ScreenPatch 384P), Nav 1.7 sodium current, Protocol 1; conditions: Protocol 1 (holding −90 mV, 0.1 Hz); CHO cells expressing human Nav 1.7; room temperature; read-out: Nav1.7 IC50
Experimental: as §1, §2, §3, §4, §5, §6, §7, §8, §9, §10

T2 sequence (Q9Y5Y9 whole entry): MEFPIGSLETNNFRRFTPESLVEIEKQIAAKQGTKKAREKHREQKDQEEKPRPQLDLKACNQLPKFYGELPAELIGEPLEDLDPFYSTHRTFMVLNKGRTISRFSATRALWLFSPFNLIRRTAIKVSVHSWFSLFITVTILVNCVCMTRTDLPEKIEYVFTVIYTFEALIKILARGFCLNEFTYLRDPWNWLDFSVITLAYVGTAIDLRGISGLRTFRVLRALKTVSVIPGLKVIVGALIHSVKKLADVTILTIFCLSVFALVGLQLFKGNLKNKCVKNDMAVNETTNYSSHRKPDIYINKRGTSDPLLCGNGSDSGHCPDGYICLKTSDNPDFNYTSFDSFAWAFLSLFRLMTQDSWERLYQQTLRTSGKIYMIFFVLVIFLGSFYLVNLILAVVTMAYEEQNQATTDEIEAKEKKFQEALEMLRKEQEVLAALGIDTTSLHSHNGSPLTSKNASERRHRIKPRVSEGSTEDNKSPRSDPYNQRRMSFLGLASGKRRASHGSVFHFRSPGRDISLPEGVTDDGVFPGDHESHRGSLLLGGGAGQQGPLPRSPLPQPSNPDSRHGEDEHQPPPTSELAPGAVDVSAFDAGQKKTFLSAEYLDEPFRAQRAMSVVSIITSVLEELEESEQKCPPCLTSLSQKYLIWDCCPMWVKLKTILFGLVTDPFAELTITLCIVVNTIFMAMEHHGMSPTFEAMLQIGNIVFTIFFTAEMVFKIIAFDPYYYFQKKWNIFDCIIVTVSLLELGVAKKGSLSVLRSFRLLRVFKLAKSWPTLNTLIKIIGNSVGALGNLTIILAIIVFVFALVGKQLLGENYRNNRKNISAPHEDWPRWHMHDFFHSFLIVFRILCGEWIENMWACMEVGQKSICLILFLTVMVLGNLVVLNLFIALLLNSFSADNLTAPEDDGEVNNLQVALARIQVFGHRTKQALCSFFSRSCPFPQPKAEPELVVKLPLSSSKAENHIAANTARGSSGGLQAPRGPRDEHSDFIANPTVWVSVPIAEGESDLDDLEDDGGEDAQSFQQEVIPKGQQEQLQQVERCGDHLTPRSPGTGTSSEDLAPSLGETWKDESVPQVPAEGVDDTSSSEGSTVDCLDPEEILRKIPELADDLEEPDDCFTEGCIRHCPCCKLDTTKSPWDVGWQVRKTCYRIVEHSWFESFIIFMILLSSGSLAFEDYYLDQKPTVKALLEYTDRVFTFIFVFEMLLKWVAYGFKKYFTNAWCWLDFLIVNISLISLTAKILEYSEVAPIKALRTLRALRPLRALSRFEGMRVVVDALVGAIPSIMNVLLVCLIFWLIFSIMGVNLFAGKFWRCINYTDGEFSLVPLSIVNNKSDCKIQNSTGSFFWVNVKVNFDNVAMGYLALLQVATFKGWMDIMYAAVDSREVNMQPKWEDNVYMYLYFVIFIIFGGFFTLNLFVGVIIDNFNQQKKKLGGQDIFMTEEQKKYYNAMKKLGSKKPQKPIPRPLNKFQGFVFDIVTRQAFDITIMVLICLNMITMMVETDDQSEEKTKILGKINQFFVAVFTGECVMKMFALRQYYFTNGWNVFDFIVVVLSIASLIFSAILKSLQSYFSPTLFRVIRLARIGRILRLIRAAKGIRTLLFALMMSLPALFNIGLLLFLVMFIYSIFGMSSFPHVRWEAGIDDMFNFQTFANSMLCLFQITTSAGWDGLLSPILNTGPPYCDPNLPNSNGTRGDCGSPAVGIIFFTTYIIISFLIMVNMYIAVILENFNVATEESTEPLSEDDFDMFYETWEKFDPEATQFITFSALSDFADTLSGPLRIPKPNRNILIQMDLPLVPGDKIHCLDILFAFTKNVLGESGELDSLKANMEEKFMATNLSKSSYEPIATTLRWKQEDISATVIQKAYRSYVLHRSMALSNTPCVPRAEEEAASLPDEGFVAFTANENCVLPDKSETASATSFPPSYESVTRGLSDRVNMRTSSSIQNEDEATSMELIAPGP
T1 sequence (Q15858 whole entry): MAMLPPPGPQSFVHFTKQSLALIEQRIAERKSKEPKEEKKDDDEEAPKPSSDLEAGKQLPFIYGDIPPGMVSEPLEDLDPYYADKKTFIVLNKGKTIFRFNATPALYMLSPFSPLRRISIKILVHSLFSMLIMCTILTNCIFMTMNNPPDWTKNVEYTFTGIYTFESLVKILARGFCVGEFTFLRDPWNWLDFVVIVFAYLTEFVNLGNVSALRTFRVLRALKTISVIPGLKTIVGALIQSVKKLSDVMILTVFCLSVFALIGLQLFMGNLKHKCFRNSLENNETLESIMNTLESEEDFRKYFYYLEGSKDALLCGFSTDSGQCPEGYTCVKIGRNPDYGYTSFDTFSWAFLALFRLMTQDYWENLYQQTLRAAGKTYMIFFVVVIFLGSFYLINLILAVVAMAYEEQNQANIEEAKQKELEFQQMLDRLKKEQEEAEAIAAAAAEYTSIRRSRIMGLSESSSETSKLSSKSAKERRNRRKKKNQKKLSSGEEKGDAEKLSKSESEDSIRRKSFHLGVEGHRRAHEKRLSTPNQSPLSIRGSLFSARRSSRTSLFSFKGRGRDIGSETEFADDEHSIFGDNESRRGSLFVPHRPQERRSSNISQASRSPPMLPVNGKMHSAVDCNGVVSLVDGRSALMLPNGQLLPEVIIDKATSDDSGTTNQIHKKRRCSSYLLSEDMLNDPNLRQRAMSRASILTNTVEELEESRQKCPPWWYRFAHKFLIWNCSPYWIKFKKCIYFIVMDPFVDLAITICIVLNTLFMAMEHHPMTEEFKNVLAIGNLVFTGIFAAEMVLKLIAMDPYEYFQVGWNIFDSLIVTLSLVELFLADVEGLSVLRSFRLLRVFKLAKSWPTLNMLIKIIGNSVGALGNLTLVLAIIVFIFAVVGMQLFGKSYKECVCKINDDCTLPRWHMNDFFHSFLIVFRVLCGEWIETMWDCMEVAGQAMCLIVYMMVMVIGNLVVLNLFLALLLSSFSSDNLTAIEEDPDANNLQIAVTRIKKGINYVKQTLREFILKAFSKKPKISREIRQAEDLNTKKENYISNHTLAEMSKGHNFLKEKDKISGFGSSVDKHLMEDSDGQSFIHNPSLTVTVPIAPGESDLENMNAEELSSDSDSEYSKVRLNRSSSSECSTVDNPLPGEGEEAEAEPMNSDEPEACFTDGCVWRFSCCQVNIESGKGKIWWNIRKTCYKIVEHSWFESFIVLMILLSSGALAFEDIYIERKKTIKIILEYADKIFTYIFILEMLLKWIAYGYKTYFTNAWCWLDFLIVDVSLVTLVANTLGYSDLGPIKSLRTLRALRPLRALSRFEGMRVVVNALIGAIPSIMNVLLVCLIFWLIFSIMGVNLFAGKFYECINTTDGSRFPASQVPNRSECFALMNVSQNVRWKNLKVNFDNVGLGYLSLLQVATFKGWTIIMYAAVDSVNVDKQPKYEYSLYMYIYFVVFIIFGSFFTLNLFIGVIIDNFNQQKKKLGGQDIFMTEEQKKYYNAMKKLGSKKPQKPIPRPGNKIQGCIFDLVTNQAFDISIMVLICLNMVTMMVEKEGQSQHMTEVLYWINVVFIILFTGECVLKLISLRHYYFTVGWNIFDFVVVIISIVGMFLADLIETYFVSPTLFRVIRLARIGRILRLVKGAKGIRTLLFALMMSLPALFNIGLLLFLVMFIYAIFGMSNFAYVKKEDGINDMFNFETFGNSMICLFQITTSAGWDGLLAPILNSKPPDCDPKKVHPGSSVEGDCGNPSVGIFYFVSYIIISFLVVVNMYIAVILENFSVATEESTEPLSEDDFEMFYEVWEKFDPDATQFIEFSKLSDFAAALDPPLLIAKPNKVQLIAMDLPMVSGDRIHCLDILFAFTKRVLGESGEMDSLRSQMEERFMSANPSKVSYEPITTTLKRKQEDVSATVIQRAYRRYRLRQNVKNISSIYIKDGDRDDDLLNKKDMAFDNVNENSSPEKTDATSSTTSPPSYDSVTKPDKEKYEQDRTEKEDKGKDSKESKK

Structure (SMILES) | IC50 [1] [µM] | IC50 [2] [µM] | IC50 [3] [µM] | IC50 [4] [µM]
COc1ccc(-c2cccc(C(=O)N/N=C/c3cc(OC)cc(OC)c3)n2)cc1 [Compound 14, (E)-N′-(3,5-dimethoxybenzylidene)-6-(4-methoxyphenyl) picolinohydrazide] | 1.32 | 0.754 |  | 
CCCOc1ccc(-c2cccc(C(=O)N/N=C/c3cc(OC)cc(OC)c3)n2)cc1 [Compound 15, (E)-N′-(3,5-dimethoxybenzylidene)-6-(4-propoxyphenyl) picolinohydrazide] | 0.272 | 0.297 |  | 
CCOc1ccc(-c2cccc(C(=O)N/N=C/c3cc(OC)cc(OC)c3)n2)cc1 [Compound 31, (E)-N′-(3,5-dimethoxybenzylidene)-6-(4-ethoxyphenyl) picolinohydrazide] | 0.444 | 0.224 |  | 
COc1cc(/C=N/NC(=O)c2cc(-c3ccc(OC(F)(F)F)cc3)ccn2)cc(OC)c1 [Compound 49, (E)-N′-(3,5-dimethoxybenzylidene)-4-(4-(trifluoromethoxy)phenyl) picolinohydrazide] |  |  | > 10 | > 10
O=C(N/N=C/c1cccs1)c1cc(-c2ccc(OC3CCCC3)cc2)ccn1 [Compound 50, (E)-4-(4-(cyclopentyloxy)phenyl)-N′-(thiophen-2-ylmethylene) picolinohydrazide] |  |  | > 10 | > 10
O=C(N/N=C/c1cccs1)c1cc(-c2ccc(OC(F)(F)F)cc2)ccn1 [Compound 51, (E)-N′-(thiophen-2-ylmethylene)-4-(4-(trifluoromethoxy)phenyl) picolinohydrazide] |  |  | > 10 | > 10
COc1cc(/C=N/NC(=O)c2ccnc(-c3ccc(Cl)cc3)n2)cc(OC)c1 [Compound 52, (E)-2-(4-chlorophenyl)-N′-(3,5-dimethoxybenzylidene)pyrimidine-4-carbohydrazide] |  |  | > 10 | > 10
CCOc1ccc(-c2nccc(C(=O)N/N=C/c3cc(OC)cc(OC)c3)n2)cc1 [Compound 53, (E)-N′-(3,5-dimethoxybenzylidene)-2-(4-ethoxyphenyl)pyrimidine-4-carbohydrazide] |  |  | > 10 | > 10
COc1cc(/C=N/NC(=O)c2ccnc(-c3ccc(OC4CCCC4)cc3)n2)cc(OC)c1 [Compound 55, (E)-2-(4-(cyclopentyloxy)phenyl)-N′-(3,5-dimethoxybenzylidene)pyrimidine-4-carbohydrazide] |  |  | > 10 | > 10
COc1cc(/C=N/NC(=O)c2ccnc(-c3ccc(OC(F)(F)F)cc3)n2)cc(OC)c1 [Compound 56, (E)-N′-(3,5-dimethoxybenzylidene)-2-(4-(trifluoromethoxy)phenyl) pyrimidine-4-carbohydrazide] |  |  | > 10 | > 10
COc1ccc(-c2nccc(C(=O)N/N=C/c3cc(OC)cc(OC)c3)n2)cc1 [Compound 57, (E)-N′-(3,5-dimethoxybenzylidene)-2-(4-methoxyphenyl)pyrimidine-4-carbohydrazide] |  |  | > 10 | > 10
CCCOc1ccc(-c2nccc(C(=O)N/N=C/c3cc(OC)cc(OC)c3)n2)cc1 [Compound 58, (E)-N′-(3,5-dimethoxybenzylidene)-2-(4-propoxyphenyl)pyrimidine-4-carbohydrazide] |  |  | > 10 | > 10
CCCCOc1ccc(-c2nccc(C(=O)N/N=C/c3cc(OC)cc(OC)c3)n2)cc1 [Compound 59, (E)-2-(4-butoxyphenyl)-N′-(3,5-dimethoxybenzylidene)pyrimidine-4-carbohydrazide] |  |  | > 10 | > 10
CCCCOc1ccc(-c2ccnc(C(=O)N/N=C/c3cc(OC)cc(OC)c3)n2)cc1 [Compound 67, (E)-4-(4-butoxyphenyl)-N′-(3,5-dimethoxybenzylidene)pyrimidine-2-carbohydrazide] |  |  | > 10 | > 10
COc1cc(/C=N/N(C)C(=O)c2ccc(-c3ccc(Cl)cc3)o2)cc(OC)c1 [Compound 78, (E)-5-(4-chlorophenyl)-N′-(3,5-dimethoxybenzylidene)-N′-methylfuran-2-carbohydrazide] |  |  | > 30 | > 30
CCOc1ccc(-c2cccc(C(=O)N(C)/N=C/c3cc(OC)cc(OC)c3)n2)cc1 [Compound 79, (E)-N′-(3,5-dimethoxybenzylidene)-6-(4-ethoxyphenyl)-N′-methylpicolinohydrazide] |  |  | > 10 | > 10

Next, values leading:

IC50 [1] [µM] | IC50 [2] [µM] | IC50 [3] [µM] | IC50 [4] [µM] | Structure (SMILES)
 |  | > 10 | > 10 | CCOc1ccc(-c2cccc(C(=O)N/N=C/c3c(Cl)cccc3Cl)n2)cc1 [Compound 34, (E)-N′-(2,6-dichlorobenzylidene)-6-(4-ethoxyphenyl) picolinohydrazide]
 |  | > 10 | > 10 | CCOc1ccc(-c2cccc(C(=O)N/N=C/c3c(F)cccc3Cl)n2)cc1 [Compound 35, (E)-N′-(2-chloro-6-fluorobenzylidene)-6-(4-ethoxyphenyl) picolinohydrazide]
 |  | 8.43 | 7.06 | CCOc1ccc(-c2cccc(C(=O)N/N=C/c3ccccc3OC)n2)cc1 [Compound 36, (E)-6-(4-ethoxyphenyl)-N′-(2-methoxybenzylidene) picolinohydrazide]
 |  | > 10 | 8.76 | CCOc1ccc(-c2cccc(C(=O)N/N=C/c3cccnc3N3CCOCC3)n2)cc1 [Compound 37, (E)-6-(4-ethoxyphenyl)-N′-((2-morpholinopyridin-3-yl)methylene) picolinohydrazide]
 |  | > 10 | > 10 | COc1cc(/C=N/NC(=O)c2cc(-c3ccc(Cl)cc3)ccn2)cc(OC)c1 [Compound 42, (E)-4-(4-chlorophenyl)-N′-(3,5-dimethoxybenzylidene) picolinohydrazide]
 |  | > 10 | > 10 | O=C(N/N=C/c1cccs1)c1cc(-c2ccc(Cl)cc2)ccn1 [Compound 43, (E)-4-(4-chlorophenyl)-N′-(thiophen-2-ylmethylene) picolinohydrazide]
 |  | > 10 | > 10 | CCOc1ccc(-c2ccnc(C(=O)N/N=C/c3cc(OC)cc(OC)c3)c2)cc1 [Compound 44, (E)-N′-(3,5-dimethoxybenzylidene)-4-(4-ethoxyphenyl) picolinohydrazide]
 |  | > 10 | > 10 | CCOc1ccc(-c2ccnc(C(=O)N/N=C/c3cccs3)c2)cc1 [Compound 45, (E)-4-(4-ethoxyphenyl)-N′-(thiophen-2-ylmethylene) picolinohydrazide]
 |  | > 10 | > 10 | COc1cc(/C=N/NC(=O)c2cc(-c3ccc(OC(C)C)cc3)ccn2)cc(OC)c1 [Compound 46, (E)-N′-(3,5-dimethoxybenzylidene)-4-(4-isopropoxyphenyl) picolinohydrazide]
 |  | > 10 | > 10 | CC(C)Oc1ccc(-c2ccnc(C(=O)N/N=C/c3cccs3)c2)cc1 [Compound 47, (E)-4-(4-isopropoxyphenyl)-N′-(thiophen-2-ylmethylene) picolinohydrazide]
 |  | > 10 | > 10 | COc1cc(/C=N/NC(=O)c2cc(-c3ccc(OC4CCCC4)cc3)ccn2)cc(OC)c1 [Compound 48, (E)-4-(4-(cyclopentyloxy)phenyl)-N′-(3,5-dimethoxybenzylidene) picolinohydrazide]
